Test results published in patent US20040121316A1 (priority 2002, published 2004).
Read-outs that look alike come from different tables or passages of the source.

Experiments:
[1] = in vitro; conditions: human
[2] = test system: mutant HIV-1 I84V/L90M; assay: Resistance Evaluation, I84V/L90M fold change; type: cell-based; conditions: mutant I84V/L90M vs wild type
[3] = test system: HIV-1 48V54V82S; assay: microbe, parasite or virus in culture; type: cell-based
[4] = test system: HIV-1 48V82A90M; assay: microbe, parasite or virus in culture; type: cell-based
[5] = molecular target: 84V90M HIV protease (Human immunodeficiency virus type 1 group M subtype B, UniProt P04585, I572V/L578M); assay: biochemical; set-up: species or system HIV-1
[6] = test system: HIV-1 84V90M; assay: microbe, parasite or virus in culture; type: cell-based; conditions: Human immunodeficiency virus 1, read-out: Cell-based assay (MT-4) EC50/nM 84V90M
[7] = test system: HIV-1 48V54V82A; assay: microbe, parasite or virus in culture; type: cell-based
[8] = test system: HIV-1 46I50V; assay: microbe, parasite or virus in culture; type: cell-based
[9] = test system: HIV-1 30N82I88D; assay: microbe, parasite or virus in culture; type: cell-based
[10] = test system: recombinant HIV-1 48V 54V 71V 82S; assay: microbe, parasite or virus in culture; type: cell-based
[11] = test system: recombinant HIV-1 10I 48V 71V 82A 90M; assay: microbe, parasite or virus in culture; type: cell-based
[12] = test system: WT HIV-1; assay: microbe, parasite or virus in culture; type: cell-based
[13] = test system: recombinant HIV-1 30N 50S 82I 88D; assay: microbe, parasite or virus in culture; type: cell-based
[14] = test system: recombinant HIV-1 10I 48V 54V 82A; assay: microbe, parasite or virus in culture; type: cell-based
[15] = test system: recombinant HIV-1 46I 47V 50V; assay: microbe, parasite or virus in culture; type: cell-based
[16] = test system: wild-type HIV-1 strain IIIB; assay: microbe, parasite or virus in culture; type: cell-based; conditions: Human immunodeficiency virus 1, IIIB
[17] = test system: WT HIV-1; assay: microbe, parasite or virus in culture; type: cell-based; conditions: read-out: Cell-based assay (MT-4) EC50/nM WT
[18] = test system: recombinant HIV-1 10I 84V 71V 73S 90M; assay: microbe, parasite or virus in culture; type: cell-based; conditions: Human immunodeficiency virus 1, MT4, read-out: Cell-based assay (MT-4) EC50/nM 84V 90M
[19] = test system: recombinant HIV-1 strains with resistance mutations in the protease gene; assay: Cross-Resistance Profile Assay, whole panel; type: cell-based; conditions: {}
[20] = Human immunodeficiency virus 1, read-out: Cell-based assay (MT-4) EC50/nM 48V54V82S
[21] = Human immunodeficiency virus 1, read-out: Cell-based assay (MT-4) EC50/nM 48V82A90M
[22] = Human immunodeficiency virus 1, read-out: Cell-based assay (MT-4) EC50/nM 48V54V82A
[23] = Human immunodeficiency virus 1, read-out: Cell-based assay (MT-4) EC50/nM 46I50V
[24] = Human immunodeficiency virus 1, read-out: Cell-based assay (MT-4) EC50/nM 30N82I88D
[25] = Human immunodeficiency virus 1, MT4, read-out: Cell-based assay (MT-4) EC50/nM 48V 54V 82S
[26] = Human immunodeficiency virus 1, MT4, read-out: Cell-based assay (MT-4) EC50/nM 48V 82A 90M
[27] = Human immunodeficiency virus 1, MT4, read-out: Cell-based assay (MT-4) EC50/nM WT
[28] = Human immunodeficiency virus 1, MT4, read-out: Cell-based assay (MT-4) EC50/nM 30N 82I 88D
[29] = Human immunodeficiency virus 1, MT4, read-out: Cell-based assay (MT-4) EC50/nM 48V 54V 82A
[30] = Human immunodeficiency virus 1, MT4, read-out: Cell-based assay (MT-4) EC50/nM 47I 50V

## CC(C)CN(CC(O)C(Cc1ccc(OCP(=O)(OCc2ccccc2)OCc2ccccc2)cc1)NC(=O)OC1COC2OCCC12)S(=O)(=O)c1ccc(OC(F)(F)F)cc1 (centres unmarked)
[1]
  CC50: 5000 to 50000 nM
[2]
  I84V/L90M fold change: + (>3 to ≦10)

## CCOP(=O)(COc1ccc(CC2C(O)C(O)C(Cc3ccccc3)N(Cc3ccccc3)C(=O)N2Cc2ccccc2)cc1)OCC (centres unmarked) [listing 1 of 2 here]
[3]; [20]
  EC50: 1900 nM
[4]; [21]
  EC50: 3290 nM
[5]
  IC50: 48 nM
[6]
  EC50: 2460 nM
[7]; [22]
  EC50: 1440 nM
[8]; [23]
  EC50: 589 nM
[9]; [24]
  EC50: 293 nM

## CCOP(=O)(COc1ccc(CC2C(O)C(O)C(Cc3ccccc3)N(Cc3ccccc3)C(=O)N2Cc2ccccc2)cc1)OCC (centres unmarked) [listing 2 of 2 here]
[10]; MT-4 cells, strain printed as 48V 54V 82S, read-out: Cell-based assay (MT-4) EC50/nM 48V 54V 82S
  EC50: 1900 nM
[11]; read-out: Cell-based assay (MT-4) EC50/nM 48V 82A 90M, MT-4 cells, strain printed as 48V 82A 90M
  EC50: 3290 nM
[12]; MT-4 cells, WT, read-out: Cell-based assay (MT-4) EC50/nM WT
  EC50: 107 nM
[13]; MT-4 cells, strain printed as 30N 82I 88D, read-out: Cell-based assay (MT-4) EC50/nM 30N 82I 88D
  EC50: 293 nM
[14]; MT-4 cells, strain printed as 48V 54V 82A, read-out: Cell-based assay (MT-4) EC50/nM 48V 54V 82A
  EC50: 1440 nM
[15]; MT-4 cells, strain printed as 47I50V, read-out: Cell-based assay (MT-4) EC50/nM 47I 50V
  EC50: 589 nM

## CCOP(=O)(COc1ccc(C[C@H](NC(=O)O[C@H]2CO[C@H]3OCC[C@H]32)[C@H](O)CN(CC(C)C)S(=O)(=O)c2ccc(OC)cc2)cc1)OCC [Compound 13]
[16]; MT2, 120 h, read-out: Anti-HIV-1 Cell Culture Activity EC50
  EC50: 3 nM
[1]
  CC50: 50000 nM

## CCCCN1C(=O)N(Cc2ccc3[nH]nc(N)c3c2)C(Cc2ccccc2)C(O)C(O)C1Cc1ccccc1 (centres unmarked) [DMP-851]
[3]; MT-4, 48V54V82S, read-out: Cell-based assay (MT-4) EC50/nM 48V54V82S
  EC50: 30 nM
[4]; MT-4, 48V82A90M, read-out: Cell-based assay (MT-4) EC50/nM 48V82A90M
  EC50: 22 nM
[7]; MT-4, 48V54V82A, read-out: Cell-based assay (MT-4) EC50/nM 48V54V82A
  EC50: 33 nM
[17]
  EC50: 54 nM
[8]; MT-4, 46I50V, read-out: Cell-based assay (MT-4) EC50/nM 46I50V
  EC50: 17 nM
[9]; MT-4, 30N82I88D, read-out: Cell-based assay (MT-4) EC50/nM 30N82I88D
  EC50: 69 nM

## CCOP(=O)(COc1ccc(CC2C(O)C(O)C(Cc3ccccc3)N(Cc3cccc(N)c3)C(=O)N2Cc2cccc(N)c2)cc1)OCC (centres unmarked) [H, Ph-mNH2, OCH2PO3Et2]
[3]; [20]
  EC50: 146 nM
[4]; [21]
  EC50: 74 nM
[6]
  EC50: 328 nM
[7]; [22]
  EC50: 168 nM
[8]; [23]
  EC50: 46 nM
[9]; [24]
  EC50: 16 nM

## CCOP(=O)(COc1ccc(CC2C(O)C(O)C(Cc3ccccc3)N(Cc3ccc(O)cc3)C(=O)N2Cc2ccc(O)cc2)cc1)OCC (centres unmarked) [H, Ph-pOH, OCH2PO3Et2]
[3]; [20]
  EC50: 198 nM
[4]; [21]
  EC50: 126 nM
[7]; [22]
  EC50: 128 nM
[8]; [23]
  EC50: 144 nM
[9]; [24]
  EC50: 90 nM

## CCOP(=O)(COc1ccc(CC2C(O)C(O)C(Cc3ccccc3)N(Cc3cccc(N)c3)C(=O)N2Cc2cccc(N)c2)cc1)OCC (centres unmarked) [H/Ph-mNH2/OCH2PO3Et2]
[10]; [25]
  EC50: 146 nM
[18]
  EC50: 328 nM
[11]; [26]
  EC50: 74 nM
[12]; [27]
  EC50: 65 nM
[13]; [28]
  EC50: 16 nM
[14]; [29]
  EC50: 168 nM
[15]; [30]
  EC50: 46 nM

## CCOP(=O)(COc1ccc(CC2C(O)C(O)C(Cc3ccccc3)N(Cc3ccc(O)cc3)C(=O)N2Cc2ccc(O)cc2)cc1)OCC (centres unmarked) [H/Ph-pOH/OCH2PO3Et2]
[10]; [25]
  EC50: 222 nM
[11]; [26]
  EC50: 146 nM
[12]; [27]
  EC50: 65 nM
[13]; [28]
  EC50: 90 nM
[14]; [29]
  EC50: 128 nM
[15]; [30]
  EC50: 144 nM

## O=C1N(Cc2ccccc2)C(Cc2ccccc2)C(O)C(O)C(Cc2ccc(O)cc2)N1Cc1ccccc1 (centres unmarked) [H/Ph/OH]
[18]
  EC50: > 6000 nM
[12]; [27]
  EC50: 1260 nM
[13]; [28]
  EC50: 2950 nM
[14]; [29]
  EC50: > 6000 nM

## CC(C)(C)NC(=O)[C@@H]1CN(Cc2cccnc2)CCN1C[C@@H](O)C[C@@H](Cc1ccccc1)C(=O)N[C@H]1c2ccccc2C[C@H]1O [Indinavir, reference compound]
[19]
  Total No. of Resistant Viruses: 8
[16]
  EC50: < 50 nM
